Test results as given in patent publication US20040063626A1 (priority 2000, published 2004).

Test system: C57BL/6 mice
Test: Hair regrowth test on shaved backs of C57BL/6 mice
Format: in vivo
Conditions: 100 μl (0.1% w/v) applied over hair removed area once a day for 30 days; female C57BL/6 mice
Source text: C57BL/6 mice (female), 42˜49 days old, were used in this test.
First of all, mice were removed of hair on their backs using an electric shaver, and weighed. The mice were divided into several groups with weights equally distributed. […] The degree of hair growth was observed by naked eye and the back sides of the mice were photographed.

Substance | degree of hair growth observed by naked eye (hair regrowth effect)
Cyclosporin A 4,7-bis(thioamide) | no significant effect
Cyclosporin A 4-thioamide | no significant effect
